Test results published in ChEMBL document CHEMBL3885861, “Open TG-GATES”.

Species on record: Rattus norvegicus
Assay: Open TG-GATES - Regimen: Single
Assay type: toxicity, organism-based, Sprague-Dawley
Set-up: regimen Single, gender Male, age 6 weeks
Settings: in vivo, iv, route intravenous injection; for TBIL / TC / TG / TP / gamma-GTP / A/G / ALP / ALT / AST / BUN / CRE / Ca / Cl / DBIL / GLC / IP / K / LDH / Na / PL / RALB: tissue Plasma; for APTT / Bas / Eos / Fbg / Hb / Ht / Lym / MCH / MCHC / MCV / Mono / Neu / PT / Plat / RBC / Ret / WBC: tissue Blood; for KIDNEY_L / KIDNEY_R / KIDNEY_TOTAL: tissue Kidney; for LIVER: tissue Liver
[1] = 0 mg/kg, 24 h, dose level Control

C[C@@H]1C[C@@H]([C@H](O)CC2CC(=O)NC(=O)C2)C(=O)[C@@H](C)C1 [CYCLOHEXIMIDE]
TBIL [1]: 0.018 mg/dL
TC [1]: 75 mg/dL
TG [1]: 83.2 mg/dL
TP [1]: 5.6 g/dL
gamma-GTP [1]: 1.8 IU/L
TERMINAL_BW (1 mg/kg, 3 h, dose level Low): 216.3 g
APTT (1 mg/kg, 3 h, dose level Low): 20.1 s
Bas (1 mg/kg, 3 h, dose level Low): 0%
Eos (1 mg/kg, 3 h, dose level Low): 0.6%
Fbg (1 mg/kg, 3 h, dose level Low): 275.2 mg/dL
Hb (1 mg/kg, 3 h, dose level Low): 13.1 g/dL
Ht (1 mg/kg, 3 h, dose level Low): 38.5%
Lym (1 mg/kg, 3 h, dose level Low): 73.2%
MCH (1 mg/kg, 3 h, dose level Low): 21.7 pg
MCHC (1 mg/kg, 3 h, dose level Low): 34%
MCV (1 mg/kg, 3 h, dose level Low): 63.7 fL
Mono (1 mg/kg, 3 h, dose level Low): 2.4%
Neu (1 mg/kg, 3 h, dose level Low): 22.2%
PT (1 mg/kg, 3 h, dose level Low): 17.6 s
Plat (1 mg/kg, 3 h, dose level Low): 121.9 x10_4/uL
RBC (1 mg/kg, 3 h, dose level Low): 605.6 x10_4/ul
Ret (1 mg/kg, 3 h, dose level Low): 8.4%
WBC (1 mg/kg, 3 h, dose level Low): 174.9 x10_2/uL
KIDNEY_L (1 mg/kg, 3 h, dose level Low): 0.9 g
KIDNEY_R (1 mg/kg, 3 h, dose level Low): 0.9 g
KIDNEY_TOTAL (1 mg/kg, 3 h, dose level Low): 1.9 g
LIVER (1 mg/kg, 3 h, dose level Low): 9 g
A/G (1 mg/kg, 3 h, dose level Low): 1.4
ALP (1 mg/kg, 3 h, dose level Low): 1054.4 IU/L
ALT (1 mg/kg, 3 h, dose level Low): 46 IU/L
AST (1 mg/kg, 3 h, dose level Low): 86 IU/L
BUN (1 mg/kg, 3 h, dose level Low): 23.6 mg/dL
CRE (1 mg/kg, 3 h, dose level Low): 0.1 mg/dL
Ca (1 mg/kg, 3 h, dose level Low): 9.6 mg/dL
Cl (1 mg/kg, 3 h, dose level Low): 107.4 meq/L
DBIL (1 mg/kg, 3 h, dose level Low): 0.002 mg/dL
GLC (1 mg/kg, 3 h, dose level Low): 145.6 mg/dL
IP (1 mg/kg, 3 h, dose level Low): 9.1 mg/dL
K (1 mg/kg, 3 h, dose level Low): 4.3 meq/L
LDH (1 mg/kg, 3 h, dose level Low): 174 IU/L
Na (1 mg/kg, 3 h, dose level Low): 142.2 meq/L
PL (1 mg/kg, 3 h, dose level Low): 78.8 mg/dL
RALB (1 mg/kg, 3 h, dose level Low): 2.8 g/dL
TBIL (1 mg/kg, 3 h, dose level Low): 0.016 mg/dL
TC (1 mg/kg, 3 h, dose level Low): 55.2 mg/dL
TG (1 mg/kg, 3 h, dose level Low): 61.6 mg/dL
TP (1 mg/kg, 3 h, dose level Low): 4.9 g/dL
gamma-GTP (1 mg/kg, 3 h, dose level Low): 1.6 IU/L
TERMINAL_BW (1 mg/kg, 6 h, dose level Low): 217.9 g
APTT (1 mg/kg, 6 h, dose level Low): 25.1 s
Bas (1 mg/kg, 6 h, dose level Low): 0%
Eos (1 mg/kg, 6 h, dose level Low): 1%
Fbg (1 mg/kg, 6 h, dose level Low): 276 mg/dL
Hb (1 mg/kg, 6 h, dose level Low): 13.2 g/dL
Ht (1 mg/kg, 6 h, dose level Low): 39.6%
Lym (1 mg/kg, 6 h, dose level Low): 65.2%
MCH (1 mg/kg, 6 h, dose level Low): 21.2 pg
MCHC (1 mg/kg, 6 h, dose level Low): 33.4%
MCV (1 mg/kg, 6 h, dose level Low): 63.4 fL
Mono (1 mg/kg, 6 h, dose level Low): 2.8%
Neu (1 mg/kg, 6 h, dose level Low): 30%
PT (1 mg/kg, 6 h, dose level Low): 19.7 s
Plat (1 mg/kg, 6 h, dose level Low): 107.5 x10_4/uL
RBC (1 mg/kg, 6 h, dose level Low): 625.2 x10_4/ul
Ret (1 mg/kg, 6 h, dose level Low): 7.7%
WBC (1 mg/kg, 6 h, dose level Low): 190 x10_2/uL
KIDNEY_L (1 mg/kg, 6 h, dose level Low): 0.9 g
KIDNEY_R (1 mg/kg, 6 h, dose level Low): 1 g
KIDNEY_TOTAL (1 mg/kg, 6 h, dose level Low): 1.9 g
LIVER (1 mg/kg, 6 h, dose level Low): 8.6 g
A/G (1 mg/kg, 6 h, dose level Low): 1.5
ALP (1 mg/kg, 6 h, dose level Low): 1085.8 IU/L
ALT (1 mg/kg, 6 h, dose level Low): 45 IU/L
AST (1 mg/kg, 6 h, dose level Low): 82.6 IU/L
BUN (1 mg/kg, 6 h, dose level Low): 18.2 mg/dL
CRE (1 mg/kg, 6 h, dose level Low): 0.1 mg/dL
Ca (1 mg/kg, 6 h, dose level Low): 8.6 mg/dL
Cl (1 mg/kg, 6 h, dose level Low): 105.4 meq/L
DBIL (1 mg/kg, 6 h, dose level Low): 0.004 mg/dL
GLC (1 mg/kg, 6 h, dose level Low): 146.2 mg/dL
IP (1 mg/kg, 6 h, dose level Low): 9.4 mg/dL
K (1 mg/kg, 6 h, dose level Low): 3.6 meq/L
LDH (1 mg/kg, 6 h, dose level Low): 164.8 IU/L
Na (1 mg/kg, 6 h, dose level Low): 140.8 meq/L
PL (1 mg/kg, 6 h, dose level Low): 74 mg/dL
RALB (1 mg/kg, 6 h, dose level Low): 3 g/dL
TBIL (1 mg/kg, 6 h, dose level Low): 0.01 mg/dL
TC (1 mg/kg, 6 h, dose level Low): 42.8 mg/dL
TG (1 mg/kg, 6 h, dose level Low): 83.8 mg/dL
TP (1 mg/kg, 6 h, dose level Low): 5 g/dL
gamma-GTP (1 mg/kg, 6 h, dose level Low): 1.4 IU/L
TERMINAL_BW (1 mg/kg, 9 h, dose level Low): 216 g
APTT (1 mg/kg, 9 h, dose level Low): 26 s
Bas (1 mg/kg, 9 h, dose level Low): 0%
Eos (1 mg/kg, 9 h, dose level Low): 0%
Fbg (1 mg/kg, 9 h, dose level Low): 276.6 mg/dL
Hb (1 mg/kg, 9 h, dose level Low): 13.8 g/dL
Ht (1 mg/kg, 9 h, dose level Low): 41.2%
Lym (1 mg/kg, 9 h, dose level Low): 70.2%
MCH (1 mg/kg, 9 h, dose level Low): 21.1 pg
MCHC (1 mg/kg, 9 h, dose level Low): 33.4%
MCV (1 mg/kg, 9 h, dose level Low): 63.1 fL
Mono (1 mg/kg, 9 h, dose level Low): 1.8%
Neu (1 mg/kg, 9 h, dose level Low): 26.8%
PT (1 mg/kg, 9 h, dose level Low): 20.4 s
Plat (1 mg/kg, 9 h, dose level Low): 122.9 x10_4/uL
RBC (1 mg/kg, 9 h, dose level Low): 653.8 x10_4/ul
Ret (1 mg/kg, 9 h, dose level Low): 7%
WBC (1 mg/kg, 9 h, dose level Low): 187.2 x10_2/uL
KIDNEY_L (1 mg/kg, 9 h, dose level Low): 0.9 g
KIDNEY_R (1 mg/kg, 9 h, dose level Low): 0.9 g
KIDNEY_TOTAL (1 mg/kg, 9 h, dose level Low): 1.9 g
LIVER (1 mg/kg, 9 h, dose level Low): 8.9 g
A/G (1 mg/kg, 9 h, dose level Low): 1.4
ALP (1 mg/kg, 9 h, dose level Low): 1037.4 IU/L
ALT (1 mg/kg, 9 h, dose level Low): 39.6 IU/L
AST (1 mg/kg, 9 h, dose level Low): 78.2 IU/L
BUN (1 mg/kg, 9 h, dose level Low): 16 mg/dL
CRE (1 mg/kg, 9 h, dose level Low): 0.1 mg/dL
Ca (1 mg/kg, 9 h, dose level Low): 9.5 mg/dL
Cl (1 mg/kg, 9 h, dose level Low): 106.2 meq/L
DBIL (1 mg/kg, 9 h, dose level Low): 0.008 mg/dL
GLC (1 mg/kg, 9 h, dose level Low): 162.6 mg/dL
IP (1 mg/kg, 9 h, dose level Low): 8.9 mg/dL
K (1 mg/kg, 9 h, dose level Low): 3.9 meq/L
LDH (1 mg/kg, 9 h, dose level Low): 205 IU/L
Na (1 mg/kg, 9 h, dose level Low): 140.4 meq/L
PL (1 mg/kg, 9 h, dose level Low): 90 mg/dL
RALB (1 mg/kg, 9 h, dose level Low): 2.8 g/dL
TBIL (1 mg/kg, 9 h, dose level Low): 0.022 mg/dL
TC (1 mg/kg, 9 h, dose level Low): 56.2 mg/dL
TG (1 mg/kg, 9 h, dose level Low): 38.4 mg/dL
TP (1 mg/kg, 9 h, dose level Low): 4.8 g/dL
gamma-GTP (1 mg/kg, 9 h, dose level Low): 1 IU/L
TERMINAL_BW (1 mg/kg, 24 h, dose level Low): 227.7 g
APTT (1 mg/kg, 24 h, dose level Low): 23.9 s
Bas (1 mg/kg, 24 h, dose level Low): 0%
Eos (1 mg/kg, 24 h, dose level Low): 0.2%
Fbg (1 mg/kg, 24 h, dose level Low): 334.6 mg/dL
Hb (1 mg/kg, 24 h, dose level Low): 13.2 g/dL
Ht (1 mg/kg, 24 h, dose level Low): 39.8%
Lym (1 mg/kg, 24 h, dose level Low): 85.4%
MCH (1 mg/kg, 24 h, dose level Low): 20.5 pg
MCHC (1 mg/kg, 24 h, dose level Low): 33.1%
MCV (1 mg/kg, 24 h, dose level Low): 61.8 fL
Mono (1 mg/kg, 24 h, dose level Low): 2%
Neu (1 mg/kg, 24 h, dose level Low): 10.6%
PT (1 mg/kg, 24 h, dose level Low): 16.8 s
Plat (1 mg/kg, 24 h, dose level Low): 115.4 x10_4/uL
RBC (1 mg/kg, 24 h, dose level Low): 643.4 x10_4/ul
Ret (1 mg/kg, 24 h, dose level Low): 6%
WBC (1 mg/kg, 24 h, dose level Low): 148.3 x10_2/uL
KIDNEY_L (1 mg/kg, 24 h, dose level Low): 1 g
KIDNEY_R (1 mg/kg, 24 h, dose level Low): 1 g
KIDNEY_TOTAL (1 mg/kg, 24 h, dose level Low): 2 g
LIVER (1 mg/kg, 24 h, dose level Low): 10.9 g
A/G (1 mg/kg, 24 h, dose level Low): 1.3
ALP (1 mg/kg, 24 h, dose level Low): 1100.2 IU/L
ALT (1 mg/kg, 24 h, dose level Low): 31.2 IU/L
AST (1 mg/kg, 24 h, dose level Low): 53.4 IU/L
BUN (1 mg/kg, 24 h, dose level Low): 12.2 mg/dL
CRE (1 mg/kg, 24 h, dose level Low): 0.2 mg/dL
Ca (1 mg/kg, 24 h, dose level Low): 10.2 mg/dL
Cl (1 mg/kg, 24 h, dose level Low): 107.6 meq/L
DBIL (1 mg/kg, 24 h, dose level Low): 0.006 mg/dL
GLC (1 mg/kg, 24 h, dose level Low): 197.2 mg/dL
IP (1 mg/kg, 24 h, dose level Low): 6.6 mg/dL
